Assay results: patent US10189838B2, “Aza-oxo-indoles for the treatment and prophylaxis of respiratory syncytial virus infection” (Hoffmann-La Roche Inc., priority 2013, dated 2019)

Tests used:
RSV Long strain = assay: Viral cytopathic effect (CPE) assay, RSV Long strain; assay type: cell-based, Respiratory Syncytial Virus; conditions: cell viability after 6 days (Cell Counting kit-8)
Summary of the method: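 Cells in DMEM with 10% FBS infected next day with RSV Long (A subtype) at a dose giving ~80–90% CPE after 6 days, alongside half-log compound dilutions. Viability at day 6 by CCK-8, absorbance 450 nm referenced to 630 nm; EC50 is concentration giving 50% of maximal protection.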

[1] = Single dose PK in male ICR mouse (IV and PO); assay type: in vivo; conditions: male ICR mice; for AUC(0-t): mouse, plasma
Experimental: The single dose PK in male ICR mouse was performed to assess their pharmacokinetic properties. Two groups of animals were dosed via either bolus intravenous (IV) or oral gavage (PO) of the respective compound. The animals for oral administration were fasted overnight prior to dosing and food was resumed 4 hours postdose. Blood samples (approximately 400 μL) were collected via cardiac puncture after euthanasia by carbon dioxide inhalation at 2 minutes, 5 minutes, 15 minutes, 30 minutes, 1 hour, 2 hours, 4 hours, 6 hours, 8 hours, and 24 hours postdose for IV group, and at 5 minutes, 15 minutes, 30 minutes, 1 hour, 2 hours, 4 hours, 6 hours, 8 hours, and 24 hours postdose for PO group. Blood samples were placed into tubes containing sodium heparin and centrifuged at 8000 rpm for 6 minutes at 4° C. to separate plasma from the samples.
Following centrifugation, the resulting plasma was transferred to clean tubes for bioanalysis on LC/MS/MS. The pharmacokinetic parameters were calculated using non-compartmental module of WinNonlin® Professional 5.2.

[2] = human respiratory syncytial virus, 144 h

## CS(=O)(=O)CCn1c(CN2C(=O)C3(CC3)c3ccncc32)cc2cc(Cl)cnc21 [Example 2-6, 1′-({5-Chloro-1-[2-(methylsulfonyl)ethyl]-1H-pyrrolo[2,3-b]pyridin-2-yl}methyl)spiro[cyclopropane-1,3′-pyrrolo[2,3-c]pyridin]-2′(1′H)-one]
RSV Long strain; [2]
  EC50: 27.3 nM
[1]; IV 5 mg/kg
  CLz: 23.7 mL/min/kg
  t1/2z: 43.4 min
  AUC(0-t): 3510 ng·h/mL
[1]; PO 25 mg/kg
  F (bioavailability): 58.3%
  t1/2z: 42.1 min
  AUC(0-t): 10200 ng·h/mL

## NS(=O)(=O)CCCn1c(CN2C(=O)C3(CC3)c3ccncc32)cc2cc(Cl)cnc21 [Example 25-3, 3-{5-Chloro-2-[(2′-oxospiro[cyclopropane-1,3′-pyrrolo[2,3-c]pyridin]-1′(2′H)-yl)methyl]-1H-pyrrolo[2,3-b]pyridin-1-yl}propane-1-sulfonamide]
RSV Long strain; [2]
  EC50: 41 nM

## CC(=O)N1CCN(CCn2c(CN3C(=O)C4(CC4)c4ccncc43)cc3cc(Cl)ccc32)CC1 [Example 26-1, 1′-({1-[2-(4-Acetylpiperazin-1-yl)ethyl]-5-chloro-1H-indol-2-yl}methyl)spiro[cyclopropane-1,3′-pyrrolo[2,3-c]pyridin]-2′(1′H)-one]
RSV Long strain; [2]
  EC50: 25 nM

## CC(=O)NS(=O)(=O)CCCn1c(CN2C(=O)C3(CC3)c3ccncc32)cc2cc(Cl)cnc21 [Example 26-2, N-[(3-{5-Chloro-2-[(2′-oxospiro[cyclopropane-1,3′-pyrrolo[2,3-c]pyridin]-1′(2′H)-yl)methyl]-1H-pyrrolo[2,3-b]pyridin-1-yl}propyl)sulfonyl]acetamide]
RSV Long strain; [2]
  EC50: 1920 nM

## CC(=O)NCCn1c(CN2C(=O)C3(CC3)c3ccncc32)cc2cc(Cl)ccc21 [Example 26-3, N-(2-{5-Chloro-2-[(2′-oxospiro[cyclopropane-1,3′-pyrrolo[2,3-c]pyridin]-1′(2′H)-yl)methyl]-1H-indol-1-yl}ethyl)acetamide]
RSV Long strain; [2]
  EC50: 25 nM

## CS(=O)(=O)N1CCN(CCn2c(CN3C(=O)C4(CC4)c4ccncc43)cc3cc(Cl)ccc32)CC1 [Example 27-1, 1′-[(5-Chloro-1-{2-[4-(methylsulfonyl)piperazin-1-yl]ethyl}-1H-indol-2-yl)methyl]spiro[cyclopropane-1,3′-pyrrolo[2,3-c]pyridin]-2′(1′H)-one]
RSV Long strain; [2]
  EC50: 6 nM

## CS(=O)(=O)NCCn1c(CN2C(=O)C3(CC3)c3ccncc32)cc2cc(Cl)ccc21 [Example 27-2, N-(2-{5-Chloro-2-[(2′-oxospiro[cyclopropane-1,3′-pyrrolo[2,3-c]pyridin]-1′(2′H)-yl)methyl]-1H-indol-1-yl}ethyl)methanesulfonamide]
RSV Long strain; [2]
  EC50: 11.5 nM

## CS(=O)(=O)NCCCn1c(CN2C(=O)C3(CC3)c3ccncc32)cc2cc(Cl)ccc21 [Example 27-3, N-(3-{5-Chloro-2-[(2′-oxospiro[cyclopropane-1,3′-pyrrolo[2,3-c]pyridin]-1′(2′H)-yl)methyl]-1H-indol-1-yl}propyl)methanesulfonamide]
RSV Long strain; [2]
  EC50: 499 nM

## N=C(N)NCCn1c(CN2C(=O)C3(CC3)c3ccncc32)cc2cc(Cl)ccc21 [Example 28]
RSV Long strain
  EC50: 64 nM

## O=C1N(Cc2cc3cc(Cl)ccc3n2CCCNCCO)c2cnccc2C12CC2 [Example 29, 1′-[(5-Chloro-1-{3-[(2-hydroxyethyl)amino]propyl}-1H-indol-2-yl)methyl]spiro[cyclopropane-1,3′-pyrrolo[2,3-c]pyridin]-2′(1′H)-one]
RSV Long strain; [2]
  EC50: 244 nM

## COC(=O)NCCCn1c(CN2C(=O)C3(CC3)c3ccncc32)cc2cc(Cl)ccc21 [Example 30, Methyl(3-{5-chloro-2-[(2′-oxospiro[cyclopropane-1,3′-pyrrolo[2,3-c]pyridin]-1′(2′H)-yl)methyl]-1H-indol-1-yl}propyl)carbamate]
RSV Long strain; [2]
  EC50: 20 nM

## O=C(NCC(F)(F)F)OCCCn1c(CN2C(=O)C3(CC3)c3ccncc32)cc2cc(Cl)ccc21 [Example 31, 3-{5-Chloro-2-[(2′-oxospiro[cyclopropane-1,3′-pyrrolo[2,3-c]pyridin]-1′(2′H)-yl)methyl]-1H-indol-1-yl}propyl(2,2,2-trifluoroethyl)carbamate]
RSV Long strain; [2]
  EC50: 52 nM

## CCS(=O)(=O)CCc1c(CN2C(=O)C3(CC3)c3cccnc32)[nH]c2cc(Cl)ccc12 [Example 32-1, 1′-({6-Chloro-3-[2-(ethylsulfonyl)ethyl]-1H-indol-2-yl}methyl)spiro[cyclopropane-1,3′-pyrrolo[2,3-b]pyridin]-2′(1′H)-one]
RSV Long strain; [2]
  EC50: 9 nM

## CS(=O)(=O)CCc1c(CN2C(=O)C3(CC3)c3ccncc32)[nH]c2cc(Cl)ccc12 [Example 32-2, 1′-({6-Chloro-3-[2-(methylsulfonyl)ethyl]-1H-indol-2-yl}methyl)spiro[cyclopropane-1,3′-pyrrolo[2,3-c]pyridin]-2′(1′H)-one]
RSV Long strain; [2]
  EC50: 5 nM

## CS(=O)(=O)CCCc1c(CN2C(=O)C3(CC3)c3ccncc32)[nH]c2cc(Cl)ccc12 [Example 33, 1′-({6-Chloro-3-[3-(methylsulfonyl)propyl]-1H-indol-2-yl}methyl)spiro[cyclopropane-1,3′-pyrrolo[2,3-c]pyridin]-2′(1′H)-one]
RSV Long strain; [2]
  EC50: 6 nM

## CS(=O)(=O)CCn1c(CN2C(=O)C3(CC3)c3c(F)cccc32)nc2cc(Cl)ccc21 [Example 34-2, 1′-({5-Chloro-1-[2-(methylsulfonyl)ethyl]-1H-benzimidazol-2-yl}methyl)-4′-fluorospiro[cyclopropane-1,3′-indol]-2′(1′H)-one]
RSV Long strain; [2]
  EC50: 20 nM

## CS(=O)(=O)CCn1c(CN2C(=O)C3(CC3)c3c(Cl)cccc32)nc2cc(Cl)ccc21 [Example 34-3, 4′-Chloro-1′-({5-chloro-1-[2-(methylsulfonyl)ethyl]-1H-benzimidazol-2-yl}methyl)spiro[cyclopropane-1,3′-indol]-2′(1′H)-one]
RSV Long strain; [2]
  EC50: 66 nM

## CS(=O)(=O)CCn1c(CN2C(=O)C3(CC3)c3c(Br)cccc32)nc2cc(Cl)ccc21 [Example 34-4, 4′-Bromo-1′-({5-chloro-1-[2-(methylsulfonyl)ethyl]-1H-benzimidazol-2-yl}methyl)spiro[cyclopropane-1,3′-indol]-2′(1′H)-one]
RSV Long strain; [2]
  EC50: 205 nM

## CCS(=O)(=O)CCn1c(CN2C(=O)C3(CC3)c3ccncc32)nc2cc(Cl)ccc21 [Example 34-5, 1′-({5-Chloro-1-[2-(ethylsulfonyl)ethyl]-1H-benzimidazol-2-yl}methyl)spiro[cyclopropane-1,3′-pyrrolo[2,3-c]pyridin]-2′(1′H)-one]
RSV Long strain; [2]
  EC50: 13 nM

## O=C1N(Cc2nc3cc(Cl)ccc3n2CCC2CS(=O)(=O)C2)c2cnccc2C12CC2 [Example 35, 1′-({5-Chloro-1-[2-(1,1-dioxidothietan-3-yl)ethyl]-1H-benzimidazol-2-yl}methyl)spiro[cyclopropane-1,3′-pyrrolo[2,3-c]pyridin]-2′(1′H)-one]
RSV Long strain; [2]
  EC50: 1.1 nM

## CS(=O)(=O)CCCn1c(CN2C(=O)C3(CC3)c3ccncc32)nc2cc(Cl)ccc21 [Example 36-1, 1′-({5-Chloro-1-[3-(methylsulfonyl)propyl]-1H-benzimidazol-2-yl}methyl)spiro[cyclopropane-1,3′-pyrrolo[2,3-c]pyridin]-2′(1′H)-one]
RSV Long strain; [2]
  EC50: 2 nM

## O=C1N(Cc2nc3cc(Cl)ccc3n2CCS(=O)(=O)C2CC2)c2cnccc2C12CC2 [Example 36-2, 1′-({5-Chloro-1-[2-(cyclopropylsulfonyl)ethyl]-1H-benzimidazol-2-yl}methyl)spiro[cyclopropane-1,3′-pyrrolo[2,3-c]pyridin]-2′(1′H)-one]
RSV Long strain; [2]
  EC50: 8 nM

## CS(=O)(=O)CCn1c(CN2C(=O)C3(CC3)c3ccncc32)nc2cc(Cl)cc(Cl)c21 [Example 37-2, 1′-({5,7-Dichloro-1-[2-(methylsulfonyl)ethyl]-1H-benzimidazol-2-yl}methyl)spiro[cyclopropane-1,3′-pyrrolo[2,3-c]pyridin]-2′(1′H)-one]
RSV Long strain; [2]
  EC50: 16.8 nM

## O=C1N(Cc2nc3cc(Cl)ccc3n2CC2COC2)c2cnccc2C12CC2 [Example 38-1, 1′-{[5-Chloro-1-(oxetan-3-ylmethyl)-1H-benzimidazol-2-yl]methyl}spiro[cyclopropane-1,3′-pyrrolo[2,3-c]pyridin]-2′(1′H)-one]
RSV Long strain; [2]
  EC50: 3 nM

## O=C1N(Cc2nc3cc(Cl)ccc3n2CCC2COC2)c2cnccc2C12CC2 [Example 38-2, 1′-({5-Chloro-1-[2-(oxetan-3-yl)ethyl]-1H-benzimidazol-2-yl}methyl)spiro[cyclopropane-1,3′-pyrrolo[2,3-c]pyridin]-2′(1′H)-one]
RSV Long strain; [2]
  EC50: 3 nM

## O=C1N(Cc2nc3cc(Cl)cc(F)c3n2CC2COC2)c2cnccc2C12CC2 [Example 38-3, 1′-{[5-Chloro-7-fluoro-1-(oxetan-3-ylmethyl)-1H-benzimidazol-2-yl]methyl}spiro[cyclopropane-1,3′-pyrrolo[2,3-c]pyridin]-2′(1′H)-one]
RSV Long strain; [2]
  EC50: 30 nM

## NC1(Cn2c(CN3C(=O)C4(CC4)c4ccncc43)nc3cc(Cl)ccc32)COC1 [Example 39-1, 1′-({1-[(3-Aminooxetan-3-yl)methyl]-5-chloro-1H-benzimidazol-2-yl}methyl)spiro[cyclopropane-1,3′-pyrrolo[2,3-c]pyridin]-2′(1′H)-one]
RSV Long strain; [2]
  EC50: 18 nM

## NC1(Cn2c(CN3C(=O)C4(CC4)c4ccncc43)nc3cc(Cl)cc(F)c32)COC1 [Example 39-2, 1′-({1-[(3-Aminooxetan-3-yl)methyl]-5-chloro-7-fluoro-1H-benzimidazol-2-yl}methyl)spiro[cyclopropane-1,3′-pyrrolo[2,3-c]pyridin]-2′(1′H)-one]
RSV Long strain; [2]
  EC50: 227 nM
